Assay results taken from PubChem BioAssay (NCI).
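Five concentrations, 48 hours, 96-well plates. Here, GI50 denotes the concentration required for 50% inhibition of growth. The concentration for full growth arrest is given as TGI.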

Columns and labels:
Assay in all cases: inhibition of tumour cell growth, NCI panel, 48 h
ACHN renal = test system: ACHN renal
CAKI-1 renal = test system: CAKI-1 renal
EKVX NSCLC = test system: EKVX NSCLC
HCT-15 colon = test system: HCT-15 colon
NCI-H460 lung = test system: NCI-H460 lung
RPMI-8226 leukemia = test system: RPMI-8226 leukemia
SF-268 CNS = test system: SF-268 CNS
SK-OV-3 ovarian = test system: SK-OV-3 ovarian
SNB-19 CNS = test system: SNB-19 CNS
SNB-75 CNS = test system: SNB-75 CNS

SMILES | TGI (ACHN renal) | TGI (CAKI-1 renal) | TGI (EKVX NSCLC) | TGI (HCT-15 colon) | TGI (NCI-H460 lung) | TGI (RPMI-8226 leukemia) | TGI (SF-268 CNS) | TGI (SK-OV-3 ovarian) | TGI (SNB-19 CNS) | TGI (SNB-75 CNS) | GI50 (ACHN renal) | GI50 (CAKI-1 renal) | GI50 (HCT-15 colon) | GI50 (NCI-H460 lung) | GI50 (RPMI-8226 leukemia) | GI50 (SF-268 CNS) | GI50 (SK-OV-3 ovarian) | GI50 (SNB-19 CNS) | GI50 (SNB-75 CNS) | GI50 (EKVX NSCLC)
CC(=O)NC1=C(Sc2ccc(Cl)cc2)C(=O)c2ccccc2C1=O | 4.85 µM | 14.6 µM | 18.9 µM | 19.1 µM | 23.2 µM | 3.65 µM | 8.41 µM | 29.1 µM | 28.6 µM |  |  |  |  |  |  |  |  |  |  | 
O=C(Sc1sc(=S)sc1SC(=O)c1ccccc1)c1ccccc1 | > 100 µM | > 100 µM | > 100 µM | > 100 µM |  | > 100 µM | > 100 µM | 41.4 µM | > 100 µM | 78.3 µM |  |  |  |  |  |  |  |  |  | 
CCCCN1CCN(c2ccc3nc(-c4ccc5nc(-c6ccc(OCC)c(OCC)c6)[nH]c5c4)[nH]c3c2)CC1 | 2.12 µM | 2.52 µM |  | 3.32 µM | 1.86 µM | 2.06 µM | 22 µM | 3.27 µM | 2.61 µM | 2.01 µM | 0.922 µM | 1.04 µM | 1.56 µM | 0.533 µM | 0.436 µM | 2.66 µM | 1.33 µM | 1.22 µM | 0.65 µM | 
COC1=CC(=O)NCCN1 | > 100 µM | > 100 µM | > 100 µM | > 100 µM | 85.9 µM |  | > 100 µM | > 100 µM | > 100 µM | > 100 µM |  |  |  |  |  |  |  |  |  | 
CCN(Cc1cccc(F)c1F)c1ccc(CO)c(Cl)c1 | > 51.7 µM | 5.59 µM |  | 36.2 µM | 11 µM | 39.7 µM | 42.7 µM | 27.4 µM | > 58.6 µM | 40.5 µM | 17.8 µM | 0.4 µM | 12.4 µM | 0.176 µM | 2.32 µM | 19.3 µM | 8.3 µM | 17 µM | 12.4 µM | 
C#CC(=O)OCC#CCOC(=O)C#C | 33 µM | 39.1 µM | 29.9 µM | 36.5 µM | > 100 µM | 34.3 µM | > 100 µM | > 100 µM | > 100 µM |  |  |  |  |  |  |  |  |  |  | 
O=c1cc(O)c2c(O)cc(O)cc2o1 | > 100 µM | > 100 µM | > 100 µM | > 100 µM | > 100 µM | > 100 µM | > 100 µM |  | > 100 µM | > 100 µM |  |  |  |  |  |  |  |  |  | 
CCOP(=O)(CC(=O)C1=C(O)C(CCCCNC(=O)OC(C)(C)C)N(Cc2ccccc2)C1=O)OCC (stereo not drawn) | > 100 µM | > 100 µM | > 100 µM |  | > 100 µM | > 100 µM | > 100 µM | > 100 µM |  | > 100 µM |  |  |  |  |  |  |  |  |  | 
COc1cc2ccc(CC(N)=O)cc2cc1OC |  |  | > 100 µM | > 100 µM |  | > 100 µM | > 100 µM | > 100 µM | > 100 µM | > 100 µM |  |  |  |  |  |  |  |  |  | 
O=C(Nc1cccc(-n2cc(-c3ccncc3)c(-c3ccc(O)c(Cl)c3)n2)c1)c1ccc(Cl)c(Cl)c1 | > 100 µM | > 100 µM |  | > 100 µM | > 100 µM | > 100 µM | > 100 µM | > 100 µM | > 100 µM | 18.4 µM | 4.62 µM | 3.38 µM | 3.2 µM | 3.91 µM | 3.46 µM | 36.9 µM | 42.3 µM | 29.7 µM | 0.977 µM | 
Cc1ccc(C(=O)N=Nc2c(O)[nH]c3ccc(Cl)cc23)cc1 | > 50 µM | 45.3 µM | > 50 µM | > 50 µM | > 50 µM | > 50 µM | > 50 µM |  | > 50 µM | > 50 µM | > 50 µM | 16.1 µM | 18 µM | 15.1 µM | 5.74 µM | 25.4 µM |  | 45.6 µM | 16.6 µM | > 50 µM
COc1ccc(-c2nnc(Nc3nc(O)c(C4=c5cc(F)ccc5=NC4=O)s3)o2)cc1 | > 100 µM | 99.3 µM | > 100 µM | > 100 µM | > 100 µM | > 100 µM | > 100 µM | > 100 µM | > 100 µM |  | 35.3 µM | 28.8 µM | 44.7 µM | 34.2 µM | 59.1 µM | 67.7 µM | > 100 µM | 48.2 µM |  | 96.1 µM
CCN1C(=O)N(CC)C2C1NN=c1s/c(=C\c3cccc([N+](=O)[O-])c3)c(=O)n12 (stereo not drawn) | > 100 µM | > 100 µM | > 100 µM | > 100 µM | > 100 µM | > 100 µM | > 100 µM |  | > 100 µM | > 100 µM | 0.0662 µM | 0.052 µM | 0.0486 µM | 0.0491 µM | 0.127 µM | 0.293 µM |  | 0.128 µM | 0.0378 µM | 0.382 µM
COc1ccc(C(=O)OC2C(OC3C(O)COC(O[C@H]4C[C@H]5[C@@H]6CC=C7C[C@@H](O)CC[C@]7(C)[C@H]6CC[C@]5(C)[C@H]4[C@H](C)C(=O)CCC(C)C)C3OC(C)=O)OCC(O)C2O)cc1 (stereo partly drawn) | 9.22 µM | 0.349 µM | 2.4 µM | 0.628 µM | 0.306 µM | < 0.003 µM | 1.46 µM | 0.191 µM |  | 4.36 µM | 0.00747 µM | < 0.003 µM | 0.023 µM | < 0.003 µM | < 0.003 µM | < 0.003 µM | < 0.003 µM |  | < 0.003 µM | < 0.003 µM
O=C(COc1ccc(-c2nc3cc(Cl)c(Cl)cc3[nH]2)cc1)N=Nc1c(O)[nH]c2ccccc12 | > 100 µM | > 100 µM | > 100 µM | > 100 µM |  |  |  | 9.88 µM | 6.62 µM | 3.68 µM | 3.71 µM | 6.91 µM | > 100 µM |  |  |  | 2.28 µM | 1.78 µM | 1.61 µM | 4.97 µM
COc1cc(NC(C)CCCN)c2ncccc2c1Sc1ccc(Cl)cc1 (stereo not drawn) | 3.22 µM | 12.3 µM | 4.72 µM | 3.67 µM | 3.22 µM |  | 6.61 µM | 3.08 µM | 3.46 µM | 3.42 µM | 1.79 µM | 3.13 µM | 1.89 µM | 1.8 µM |  | 2.43 µM | 1.65 µM | 1.8 µM | 1.7 µM | 2.14 µM
